pIC50: −log10 of the molar value. Where “and” joins values, the source holds several entries; their conditions need not be identical. Equal entries are not always repeated.
Assays:
WM266.4 melanoma cells = assay: SRB Cell Proliferation Assay (SRB GI50); assay type: cell-based; settings: Homo sapiens, WM 266-4, 144 h, 6 days growth
Description: Biological Methods —SRB Cell Proliferation Assay (SRB GI50)
Cultures of WM266.4 melanoma cells are routinely cultured in DMEM/10% foetal bovine serum, at 37° C., in 5% CO2 water saturated atmosphere. Cultures are maintained in exponential growth phase by sub-culturing before having become confluent (3-5 day intervals). Single cell suspensions are prepared by harvesting an 80 cm^2 tissue culture flask with 5 mL commercial trypsin EDTA. After 5 minutes, the detached cells are mixed with 5 mL fully complemented culture medium and centrifugally pelleted (1000 rpm for 7 minutes). After aspirating the supernatant, the cell pellet is re-suspended in 10 mL fresh medium and the cells fully disaggregated by drawing the whole volume up/down 5 times through a 19-gauge needle. The concentration of the cells is determined using a haemocytometer (1/10 dilution). A suitable volume to give at least a 2-fold excess for the number of tests being conducted, typically 100-200 mL, is prepared by diluting the cell suspension to 10,000/mL, and 100 μL/well dispensed into 96 well plates using a programmable 8-channel peristaltic pump, giving 1000 cells/well, leaving column 12 blank. The plates are returned to the incubator for 24 hours to allow the cells to re-attach.
The compounds being tested are prepared at 20 mM in dimethylsulphoxide. Aliquots (200 μL) are diluted into 20 mL culture medium giving 200 μM, and 10 serial dilutions of 3× performed by transferring 5 mL to 10 mL. Aliquots (100 μL) of each dilution are added to the wells, using an 8-channel pipettor, thus performing a final further 2× dilution, and giving doses ranging from 100 μM to 0.005 μM. Column 11 receives plain culture medium only. Each compound is tested in quadruplicate, each replicate being the average of four wells, and two plates per compound.
After a further 6 days growth, the plates are emptied, and the cells are fixed in 10% trichloroacteic acid for 10 minutes on ice. After thorough rinsing in running tap water, the plates are dried, and stained by adding 50 μL of a solution of 0.1% sulphorhodamine-B in 1% acetic acid, for 10 minutes at room temperature. The stain is poured out and the plates thoroughly rinsed under a stream of 1% acetic acid, thus removing unbound stain, and dried. The bound stain is taken into solution by addition of 150 μL Tris buffer pH 8, followed by 10 minutes on a plate-shaker (approximately 500 rpm). The absorbance at 540 nm in each well (being proportional to the number of cells present) is determined using a plate reader.
After averaging the results in rows A-D and E-H, the blank value (row 12) is subtracted, and results expressed as percentage of the untreated value (row 11). […] The GI50 generated by this procedure is the concentration of the drug that produces a percentage control A540 midway between the saturation, and zero-effect plateaus.

B-RAF = target: T1, B-RAF (Homo sapiens, UniProt P15056, V600E); assay: DELFIA Kinase Assay; assay type: biochemical; settings: 100 μM ATP, GST-MEK substrate
T1 construct: made in house
Description: Biological Methods—DELFIA Kinase Assay
Compounds were assessed by a kinase assay performed according to the following protocol.
DKB1 (DKB with B-RAF and MEK Protein):
Combine 4950 μL of DKB and 50 μL of 2.5 mg/ml GST-MEK stock (to give […] of MEK per 40 μL). Then add 22.5 μL of B-RAF to give ˜0.2 μL of B-RAF per 40 μL.
100 mM stock, dilute to 500 μM to give 100 μM final concentration in assay.
• 1. Preblock wells with 5% milk in TBS for 1 hour. • 2. Wash wells with 3× with 200 μL TBS. • 3. Plate out 40 μL of DKB1 for all inhibitors (test compounds), DMSO control, and optionally other control compounds. • 4. Plate out 40 μL of DKB2 for BO and EV wells. • 5. Add inhibitors (test compounds) at 0.5 μL per well according to desired plate layout. • 6. Add 0.5 μL DMSO to vehicle control wells. • 7. Add 2 μL of B-RAF to BO and EV wells. • 8. Pre-incubate with inhibitors (test compounds) for 10 minutes at room temperature with shaking. • 9. Add 10 μL of 500 μM ATP stock, in DKB, to give 100 μM assay concentration. • 10. Seal plates with TopSeal and incubate at room temperature with shaking for 45 minutes. • 11. Wash plates 3× with 200 μL 0.1% Tween20/Water to terminate reaction. • 12. Add 50 μL per well of antibody mix and incubate for 1 hour at room temperature with shaking. • 13. Wash plates 3× with 200 μL 0.1% Tween20/Water. • 14. Add 100 μL DELFIA enhancement solution per well, cover in foil, and incubate at room temperature for 30 minutes with shaking. • 15. Read on Victor using Europium protocol.
(§1) Values for the blank (Empty Vector) are subtracted from all values. The DMSO controls are set as 100% activity and assay points (the response) are calculated as a percentage of the DMSO control. Data are plotted using Graphpad Prism software and a non-linear regression line is calculated using a variable slope sigmoidal dose-response equation (Y=Bottom+(Top−Bottom)/(1+10^((LogEC50−X)*HillSlope)) where X is the logarithm of concentration. Y is the response). The IC50 generated by this procedure is the concentration of the drug that produces a percentage control fluorescence value midway between the saturation, and zero-effect plateaus. Three independent assays are usually performed and the mean IC50 is reported.

pERK = assay: Cell Based Phospho-ERK Assay; settings: 6 h, 6 hours incubation with test compound
Description: Biological Methods—Cell Based Phosho-ERK Assay
Compounds were assessed using a cell-based assay which was performed according to the following protocol.
Plate out 16,000 cells/well in 99 μL medium in a 96-well plate.
• 1. Add 1 μL inhibitor to the cells (total […] solution). • 2. Incubate the cells with test compound for 6 hours at 37° C. • 3. Aspirate off the solution from all of the wells. • 4. Fixate the cells with 100 μL 4% formaldehyde/0.25% Triton X-100 PBS per well. • 5. Incubate the plate for 1 hour at 4° C. • 6. Aspirate off the fixing solution and add 300 μL TBS per well. • 7. Leave the plate overnight at 4° C. Day 2: • 1. Wash the plate 2× with 200 μL PBS per well. • 2. Block with 100 μL 5% dried milk in TBS. • 3. Incubate the plate for 20 minutes at 37° C. • 4. Wash the plate 2× with 0.1% tween/H2O. • 5. Add 50 μL of 3 μg/mL primary antibody pERK (Sigma M8159), diluted in 5% milk powder/TBS, to each well. • 6. Incubate the plate for 2 hours at 37° C. • 7. Wash the plate 3× with 0.1% tween/H2O. • 8. Add 50 μL of 0.45 μg/mL secondary Europium-labelled anti-mouse antibody (Perkin Elmer) to each well. • 9. Incubate the plate for 1 hour at 37° C. • 10. Wash the plate 3× with 0.1% tween/H2O. • 11. Add 100 μL enhancement solution (Perkin Elmer) to each well. • 12. Leave the plate for approximately 10 minutes at room temperature before gently shaking the plate. • 13. Read Europium Time Resolved Fluorescence in Victor2. • 14. Wash the plate 2× with 0.1% tween/H2O. • 15. Measure the protein concentration with BCA (Sigma) by adding 200 μL of solution per well. • 16. Incubate the plate for 30 minutes at 37° C. • 17. Read absorbance levels at 570 nm in a plate reader.
Note that Europium counts are normalised for protein levels by dividing counts by absorbance.
as §1, with “(no cells)” for “(Empty Vector)”

T1 sequence (P15056 whole entry V600E): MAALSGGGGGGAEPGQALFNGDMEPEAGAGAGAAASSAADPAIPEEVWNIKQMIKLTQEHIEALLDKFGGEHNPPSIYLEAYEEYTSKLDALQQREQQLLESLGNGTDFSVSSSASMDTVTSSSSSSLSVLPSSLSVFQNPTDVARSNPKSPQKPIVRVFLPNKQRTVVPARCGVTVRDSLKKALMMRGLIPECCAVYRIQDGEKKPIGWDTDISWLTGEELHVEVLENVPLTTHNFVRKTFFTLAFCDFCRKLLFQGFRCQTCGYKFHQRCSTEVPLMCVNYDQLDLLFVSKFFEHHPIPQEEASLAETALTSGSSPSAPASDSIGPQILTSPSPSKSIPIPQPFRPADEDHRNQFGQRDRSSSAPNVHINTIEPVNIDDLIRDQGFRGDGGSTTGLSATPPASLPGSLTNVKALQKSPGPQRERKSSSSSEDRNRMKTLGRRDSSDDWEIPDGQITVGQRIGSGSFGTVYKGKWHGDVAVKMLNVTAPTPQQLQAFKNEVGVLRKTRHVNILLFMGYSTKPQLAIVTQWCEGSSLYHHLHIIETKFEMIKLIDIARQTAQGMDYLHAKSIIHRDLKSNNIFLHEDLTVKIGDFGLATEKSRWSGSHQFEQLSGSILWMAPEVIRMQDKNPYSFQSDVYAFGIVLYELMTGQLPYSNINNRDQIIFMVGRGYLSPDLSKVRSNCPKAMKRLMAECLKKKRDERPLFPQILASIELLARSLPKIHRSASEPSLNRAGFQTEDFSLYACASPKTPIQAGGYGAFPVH

O=C(Nc1cc(C(F)(F)F)ccc1F)Nc1ccc(Oc2ccnc3[nH]c(=O)cnc23)c2ccccc12 [AA-012, 1-(2-fluoro-5-(trifluoromethyl)phenyl)-3-(4-(3-oxo-3,4-dihydropyrido[2,3-b]pyrazin-8-yloxy)naphthalen-1-yl)urea]
GI50 (WM266.4 melanoma cells): 1000 to 10000 nM
pIC50 (B-RAF): > 6.00 and 6.00 to 7.00

O=C(Nc1ccc(Cl)c(C(F)(F)F)c1)Nc1ccc(Oc2ccnc3ncc(=O)[nH]c23)c2ccccc12 [AA-037, 1-(4-chloro-3-(trifluoromethyl)phenyl)-3-(4-(1-oxo-1,2-dihydropyrido[2,3-b]pyrazin-8-yloxy)naphthalen-1-yl)urea]
GI50 (WM266.4 melanoma cells): < 10000 nM
pIC50 (B-RAF): > 6.00 and 6.00 to 7.00

CNc1cnc2c(Oc3ccc(NC(=O)Nc4cc(C(F)(F)F)ccc4F)c(F)c3)ccnc2n1 [AA-055, 1-(2-fluoro-4-(3-(methylamino)pyrido[3,2-b]pyrazin-8-yloxy)phenyl)-3-(2-fluoro-5-(trifluoromethyl)phenyl)urea]
GI50 (WM266.4 melanoma cells): 1000 to 10000 nM
pIC50 (B-RAF): > 6.00 and 6.00 to 7.00

Cc1ccc(-n2nc(C(C)(C)C)cc2NC(=O)Nc2ccc(Oc3ccnc4[nH]c(=O)c(N)nc34)cc2F)cc1 [AA-057, 1-(4-(2-amino-3-oxo-3,4-dihydropyrido[2,3-b]pyrazin-8-yloxy)-2-fluorophenyl)-3-(3-tert-butyl-1-p-tolyl-1H-pyrazol-5-yl)urea]
GI50 (WM266.4 melanoma cells): < 1000 nM
pIC50 (B-RAF): 6.00 to 7.00
pIC50 (pERK): > 6.00

Cc1ccc(-n2nc(C(C)(C)C)cc2NC(=O)Nc2ccc(Oc3ccnc4nc(CBr)c(=O)[nH]c34)cc2F)cc1 [AA-058, 1-(4-(3-(bromomethyl)-2-oxo-1,2-dihydropyrido[2,3-b]pyrazin-8-yloxy)-2-fluorophenyl)-3-(3-tert-butyl-1-p-tolyl-1H-pyrazol-5-yl)urea]
GI50 (WM266.4 melanoma cells): 1000 to 10000 nM
pIC50 (B-RAF): 6.00 to 7.00
pIC50 (pERK): 5.00 to 6.00

CSc1cc(Oc2ccnc3[nH]c(=O)c(C)nc23)ccc1NC(=O)Nc1cc(C(F)(F)F)ccc1F [AA-060, 1-(2-fluoro-5-(trifluoromethyl)phenyl)-3-(4-(2-methyl-3-oxo-3,4-dihydropyrido[2,3-b]pyrazin-8-yloxy)-2-(methylthio)phenyl)urea]
GI50 (WM266.4 melanoma cells): < 1000 nM
pIC50 (B-RAF): > 7.00
pIC50 (pERK): > 6.00

CSc1cc(Oc2ccnc3[nH]c(=O)c(C)nc23)ccc1NC(=O)Nc1cc(C(C)(C)C)nn1-c1ccc(C)cc1 [AA-061, 1-(3-tert-butyl-1-p-tolyl-1H-pyrazol-5-yl)-3-(4-(2-methyl-3-oxo-3,4-dihydropyrido[2,3-b]pyrazin-8-yloxy)-2-(methylthio)phenyl)urea]
GI50 (WM266.4 melanoma cells): < 1000 nM
pIC50 (B-RAF): > 7.00
pIC50 (pERK): > 6.00

COc1ccc(-n2nc(C(C)(C)C)cc2NC(=O)Nc2ccc(Oc3ccnc4[nH]c(=O)cnc34)cc2F)cn1 [AA-062, 1-(3-tert-butyl-1-(6-methoxypyridin-3-yl)-1H-pyrazol-5-yl)-3-(2-fluoro-4-(3-oxo-3,4-dihydropyrido[2,3-b]pyrazin-8-yloxy)phenyl)urea]
GI50 (WM266.4 melanoma cells): < 1000 nM
pIC50 (B-RAF): > 7.00
pIC50 (pERK): > 6.00

COc1ccc(-n2nc(C(C)(C)C)cc2NC(=O)Nc2ccc(Oc3ccnc4[nH]c(=O)cnc34)cc2SC)cn1 [AA-063, 1-(3-tert-butyl-1-(6-methoxypyridin-3-yl)-1H-pyrazol-5-yl)-3-(2-(methylthio)-4-(3-oxo-3,4-dihydropyrido[2,3-b]pyrazin-8-yloxy)phenyl)urea]
GI50 (WM266.4 melanoma cells): < 1000 nM
pIC50 (B-RAF): > 7.00
pIC50 (pERK): > 6.00

CN(C)c1cnc2c(Oc3ccc(NC(=O)Nc4cc(C(F)(F)F)ccc4F)c(F)c3)ccnc2n1 [AA-068, 1-(4-(3-(dimethylamino)pyrido[3,2-b]pyrazin-8-yloxy)-2-fluorophenyl)-3-(2-fluoro-5-(trifluoromethyl)phenyl)urea]
GI50 (WM266.4 melanoma cells): 1000 to 10000 nM
pIC50 (B-RAF): 6.00 to 7.00

CN(C)c1cnc2c(Oc3ccc(NC(=O)Nc4cc(C(C)(C)C)nn4-c4ccccc4)c(F)c3)ccnc2n1 [AA-070, 1-(3-Tert-butyl-1-phenyl-1H-pyrazol-5-yl)-3-(4-(3-(dimethylamino)pyrido[3,2-b]pyrazin-8-yloxy)-2-fluorophenyl)urea]
GI50 (WM266.4 melanoma cells): 1000 to 10000 nM
pIC50 (pERK): 5.00 to 6.00

Cc1ccc(-n2nc(C(C)(C)C)cc2NC(=O)Nc2ccc(Oc3ccnc4nc(N5CCOCC5)cnc34)cc2F)cc1 [AA-073, 1-(3-tert-butyl-1-p-tolyl-1H-pyrazol-5-yl)-3-(2-fluoro-4-(3-morpholinopyrido[3,2-b]pyrazin-8-yloxy)phenyl)urea]
GI50 (WM266.4 melanoma cells): < 1000 nM
pIC50 (pERK): > 6.00

CC(C)(C)c1cc(NC(=O)Nc2ccc(Oc3ccnc4[nH]c(=O)cnc34)cc2F)n(CC2CCC2)n1 [AA-099, 1-(3-Tert-butyl-1-(cyclobutylmethyl)-1H-pyrazol-5-yl)-3-(2-fluoro-4-(3-oxo-3,4-dihydropyrido[3,2-b]pyrazin-8-yloxy)phenyl)urea]
GI50 (WM266.4 melanoma cells): 1000 to 10000 nM
pIC50 (pERK): > 6.00
